Results reported in the NIST ThermoML archive (doi:10.1016/j.jct.2009.09.007).
Numbers after ± are expanded uncertainties.

CCCCn1cc[n+](C)c1.F[B-](F)(F)F [1-butyl-3-methylimidazolium tetrafluoroborate]
surface tension liquid-gas (284.17 K, Wilhelmy plate method): 45.29 ± 0.07 mN/m
surface tension liquid-gas (284.25 K, Ring tensiometer): 45.44 ± 0.61 mN/m
surface tension liquid-gas (288.28 K, Wilhelmy plate method): 44.98 ± 0.13 mN/m
surface tension liquid-gas (288.35 K, Ring tensiometer): 45.15 ± 0.6 mN/m
surface tension liquid-gas (293.32 K, Wilhelmy plate method): 44.56 ± 0.11 mN/m
surface tension liquid-gas (293.48 K, Ring tensiometer): 44.57 ± 0.6 mN/m
surface tension liquid-gas (298.48 K, Wilhelmy plate method): 44.26 ± 0.1 mN/m
surface tension liquid-gas (298.5 K, Ring tensiometer): 44.41 ± 0.59 mN/m
surface tension liquid-gas (303.41 K, Wilhelmy plate method): 43.84 ± 0.1 mN/m
surface tension liquid-gas (303.51 K, Ring tensiometer): 44.05 ± 0.59 mN/m
surface tension liquid-gas (308.38 K, Wilhelmy plate method): 43.68 ± 0.15 mN/m
surface tension liquid-gas (308.42 K, Ring tensiometer): 43.63 ± 0.59 mN/m
surface tension liquid-gas (313.73 K, Ring tensiometer): 43.21 ± 0.58 mN/m
surface tension liquid-gas (313.79 K, Wilhelmy plate method): 43.21 ± 0.2 mN/m
surface tension liquid-gas (318.15 K, Wilhelmy plate method): 43 ± 0.15 mN/m
surface tension liquid-gas (318.19 K, Ring tensiometer): 43.19 ± 0.58 mN/m
surface tension liquid-gas (323.01 K, Ring tensiometer): 42.84 ± 0.58 mN/m
surface tension liquid-gas (323.03 K, Wilhelmy plate method): 42.58 ± 0.33 mN/m
surface tension liquid-gas (327.8 K, Wilhelmy plate method): 42.46 ± 0.1 mN/m
surface tension liquid-gas (327.9 K, Ring tensiometer): 42.62 ± 0.57 mN/m
surface tension liquid-gas (333.11 K, Wilhelmy plate method): 42.15 ± 0.27 mN/m
surface tension liquid-gas (333.12 K, Ring tensiometer): 42.07 ± 0.57 mN/m
surface tension liquid-gas (337.64 K, Wilhelmy plate method): 41.96 ± 0.1 mN/m
surface tension liquid-gas (337.65 K, Ring tensiometer): 41.78 ± 0.56 mN/m
surface tension liquid-gas (342.32 K, Ring tensiometer): 41.71 ± 0.56 mN/m
surface tension liquid-gas (342.4 K, Wilhelmy plate method): 41.56 ± 0.34 mN/m
surface tension liquid-gas (348.62 K, Ring tensiometer): 41.16 ± 0.56 mN/m
surface tension liquid-gas (348.74 K, Wilhelmy plate method): 41.3 ± 0.19 mN/m
surface tension liquid-gas (351.23 K, Wilhelmy plate method): 40.89 ± 0.18 mN/m
surface tension liquid-gas (351.44 K, Ring tensiometer): 40.85 ± 0.56 mN/m

CCCCCC[n+]1ccn(C)c1.O=S(=O)([N-]S(=O)(=O)C(F)(F)F)C(F)(F)F
surface tension liquid-gas (283.17 K, Wilhelmy plate method): 32.34 ± 0.09 mN/m
surface tension liquid-gas (287.86 K, Wilhelmy plate method): 32.07 ± 0.16 mN/m
surface tension liquid-gas (293.15 K, Wilhelmy plate method): 31.81 ± 0.06 mN/m
surface tension liquid-gas (298.26 K, Wilhelmy plate method): 31.59 ± 0.07 mN/m
surface tension liquid-gas (303.16 K, Wilhelmy plate method): 31.34 ± 0.07 mN/m
surface tension liquid-gas (308.99 K, Wilhelmy plate method): 30.99 ± 0.11 mN/m
surface tension liquid-gas (314.39 K, Wilhelmy plate method): 30.71 ± 0.06 mN/m
surface tension liquid-gas (318.21 K, Wilhelmy plate method): 30.48 ± 0.07 mN/m
surface tension liquid-gas (323.09 K, Wilhelmy plate method): 30.26 ± 0.09 mN/m
surface tension liquid-gas (327.93 K, Wilhelmy plate method): 30 ± 0.09 mN/m
surface tension liquid-gas (333.53 K, Wilhelmy plate method): 29.8 ± 0.13 mN/m
surface tension liquid-gas (337.7 K, Wilhelmy plate method): 29.45 ± 0.11 mN/m
surface tension liquid-gas (342.32 K, Wilhelmy plate method): 29.28 ± 0.18 mN/m
surface tension liquid-gas (347.3 K, Wilhelmy plate method): 29.06 ± 0.13 mN/m
surface tension liquid-gas (351.11 K, Wilhelmy plate method): 28.91 ± 0.32 mN/m

CCCC[n+]1ccn(C)c1.O=S(=O)([N-]S(=O)(=O)C(F)(F)F)C(F)(F)F
surface tension liquid-gas (284.15 K, Wilhelmy plate method): 33.46 ± 0.11 mN/m
surface tension liquid-gas (284.19 K, Ring tensiometer): 33.48 ± 0.47 mN/m
surface tension liquid-gas (287.81 K, Wilhelmy plate method): 33.27 ± 0.11 mN/m
surface tension liquid-gas (294.2 K, Wilhelmy plate method): 33.02 ± 0.06 mN/m
surface tension liquid-gas (298.35 K, Wilhelmy plate method): 32.85 ± 0.06 mN/m
surface tension liquid-gas (298.41 K, Ring tensiometer): 33.04 ± 0.46 mN/m
surface tension liquid-gas (301.96 K, Wilhelmy plate method): 32.66 ± 0.07 mN/m
surface tension liquid-gas (306.81 K, Wilhelmy plate method): 32.44 ± 0.07 mN/m
surface tension liquid-gas (310.81 K, Wilhelmy plate method): 32.26 ± 0.07 mN/m
surface tension liquid-gas (317.93 K, Ring tensiometer): 31.97 ± 0.45 mN/m
surface tension liquid-gas (317.94 K, Wilhelmy plate method): 31.97 ± 0.06 mN/m
surface tension liquid-gas (322.99 K, Wilhelmy plate method): 31.74 ± 0.04 mN/m
surface tension liquid-gas (327.92 K, Wilhelmy plate method): 31.58 ± 0.07 mN/m
surface tension liquid-gas (332.97 K, Wilhelmy plate method): 31.3 ± 0.07 mN/m
surface tension liquid-gas (337.12 K, Wilhelmy plate method): 31.17 ± 0.22 mN/m
surface tension liquid-gas (343.28 K, Wilhelmy plate method): 30.91 ± 0.23 mN/m
surface tension liquid-gas (347.82 K, Wilhelmy plate method): 30.76 ± 0.15 mN/m
surface tension liquid-gas (348.05 K, Ring tensiometer): 30.41 ± 0.43 mN/m
surface tension liquid-gas (351.56 K, Wilhelmy plate method): 30.53 ± 0.13 mN/m

CCn1cc[n+](C)c1.O=S(=O)([N-]S(=O)(=O)C(F)(F)F)C(F)(F)F
surface tension liquid-gas (283.16 K, Wilhelmy plate method): 36.78 ± 0.07 mN/m
surface tension liquid-gas (283.2 K, Ring tensiometer): 37.07 ± 0.51 mN/m
surface tension liquid-gas (287.3 K, Wilhelmy plate method): 36.58 ± 0.07 mN/m
surface tension liquid-gas (292.6 K, Wilhelmy plate method): 36.35 ± 0.06 mN/m
surface tension liquid-gas (297.89 K, Wilhelmy plate method): 36.13 ± 0.06 mN/m
surface tension liquid-gas (297.95 K, Ring tensiometer): 36.12 ± 0.64 mN/m
surface tension liquid-gas (302.66 K, Wilhelmy plate method): 35.88 ± 0.06 mN/m
surface tension liquid-gas (308.82 K, Wilhelmy plate method): 35.61 ± 0.06 mN/m
surface tension liquid-gas (313.3 K, Wilhelmy plate method): 35.36 ± 0.04 mN/m
surface tension liquid-gas (317.77 K, Wilhelmy plate method): 35.14 ± 0.07 mN/m
surface tension liquid-gas (323.16 K, Ring tensiometer): 34.81 ± 0.48 mN/m
surface tension liquid-gas (323.19 K, Wilhelmy plate method): 34.84 ± 0.04 mN/m
surface tension liquid-gas (327.91 K, Wilhelmy plate method): 34.66 ± 0.04 mN/m
surface tension liquid-gas (327.97 K, Ring tensiometer): 34.73 ± 0.48 mN/m
surface tension liquid-gas (333.82 K, Wilhelmy plate method): 34.29 ± 0.18 mN/m
surface tension liquid-gas (333.86 K, Ring tensiometer): 34.1 ± 0.47 mN/m
surface tension liquid-gas (337.84 K, Wilhelmy plate method): 34.06 ± 0.13 mN/m
surface tension liquid-gas (337.88 K, Ring tensiometer): 34.09 ± 0.47 mN/m
surface tension liquid-gas (343.6 K, Wilhelmy plate method): 33.79 ± 0.23 mN/m
surface tension liquid-gas (346.9 K, Ring tensiometer): 33.74 ± 0.47 mN/m
surface tension liquid-gas (346.93 K, Wilhelmy plate method): 33.66 ± 0.16 mN/m
surface tension liquid-gas (351.54 K, Wilhelmy plate method): 33.42 ± 0.18 mN/m
surface tension liquid-gas (351.67 K, Ring tensiometer): 33.2 ± 0.46 mN/m
